{"source": "patent US20070179085A1", "about": "“MODULATION OF RHAMM-CAVEOLIN/LIPID RAFT INTERACTIONS TO AFFECT DEVELOPMENT, RESPONSES TO TISSUE INJURY, ANGIOGENESIS, TUMORIGENESIS, METASTASIS AND GROWTH FACTOR/CYTOKINE RESPONSES” (priority 2005, published 2007)", "key": {"[1]": {"system": "70 kDa RHAMM", "assay": "GPI-anchor identification: Triton X-114 phase separation, PI-PLC, surface biotin labeling", "assay_type": "cell-based, rat", "conditions": "co-treatment with PDGF-BB and mannosamine 10 mM for six hours", "experimental": "Differential solubilization and temperature-induced Triton X-114 phase separation was performed as briefly described with 75-100 μg of membrane protein. Cells were grown to confluency and quiesced for 48 hours at which point cells were harvested for membrane protein. Some samples were incubated with PI-PLC for 1 hour at 37° C. before proceeding with Triton X-114 phase separation. PI-PLC was used at 0.375 U/100 μg membrane protein. In separate experiments Mannosamine-HCl was used at 10 mM during 6 hour PDGF-BB treatment. For radiolabel experiments, cells were grown to confluency and quiesced for 48 hours in inositol-free media and then incubated with 4 μCi/mL of ^3H myo-inositol during 6 hour PDGF-BB treatment. For surface biotinylation experiments, media was removed after treatment and replaced with 1 mg/ml biotin in defined media and incubated for 20 minutes at 37° C."}, "[2]": {"system": "erk", "assay": "Immunoblot for total and phosphorylated-erk in PDGF-BB stimulated SMC", "assay_type": "cell-based, rat", "conditions": "peptide pretreatment 24 hours, then 10-minute PDGF-BB"}, "[3]": {"system": "RHAMM:caveolin", "assay": "Co-immunoprecipitation of RHAMM and caveolin-1 from SMC lysates", "assay_type": "cell-based, rat", "conditions": "peptide 24 hours prior to and during 6 hour PDGF-BB treatment", "experimental": "For standard experiment, 100 μg of lysate was used. Samples were pre-cleared with 50 μl of Protein G-agarose for 60 minutes at room temperature while rotating then centrifuged at 13000 g for 5 minutes. The supernatant was transferred to a new tube and incubated with 1 μg of antibody overnight at 4° C. while rotating. The samples were then incubated with 20 μl of Protein G-agarose for 1 hour at 4° C. while rotating. Beads were collected by centrifugation (1 minute at high speed) and then washed three times with lysis buffer (50 mM Tris, pH 8.0/140 mM NaCl/[…]/0.4% Deoxycholate/protease inhibitor cocktail (Boehringer Manheim). The beads were resuspended in at least 40 μl of 2× Novex Sample Buffer and western blot was performed as per NUPAGE protocol (Invitrogen). Primary and secondary antibodies were diluted (R36: 5 μg/ml, Caveolin-1: 0.25 μg/ml) and pre-incubated together over-night before use. For biotin labeling experiments, 6 μl of streptavidin-agarose was added to 25 μg of protein and incubated for 3 hours at 4° C. Beads were collected by centrifugation at 13000 g for 1 minute, washed and resuspended in Novex sample buffer as above.\nTherefore, peptides were used to interfere with RHAMM:caveolin to establish direct protein-protein interactions. […]"}, "[4]": {"system": "70 kDa RHAMM", "assay": "MBCD-mediated release of RHAMM from SMC (caveolar disruption)", "assay_type": "cell-based, rat", "conditions": "MBCD 30 minutes, absence of PDGF-BB", "experimental": "Caveolar disruption was performed as described below. Cells were grown to confluency in 150 mm dishes and quiesced for 48 hr. After 6 hr PDGF treatment, media was removed and replaced with 20 mm methyl-beta-cyclodextrin in TKM buffer (50 mM Tris-HCl, pH7.4, 25 mM KCl, 5 mM MgCl, 1 mM EDTA). Cells were incubated for 20-30 minutes at 37° C., and the cell-free supernatant was collected after centrifugation at 2000 g for 10 minutes.\nSince the GPI anchor links to a hydrophobic lipid tail that inserts into the exoplasmic leaflet of the cell membrane, a liquid ordered arrangement is necessary to maintain its integrity. […] Methyl-beta-cyclodextrin (MBCD), a cell surface-specific cholesterol-extracting agent, can be used to disrupt lipid rafts and caveolae to release endogenous GPI-anchored proteins (Ilangumaran, Madore, McCabe). […] Proteins in the cholesterol-rich annulus are sensitive whereas those in the sphingolipid core are resistant to release by MBCD. SMC cultures were treated with MBCD for 30 minutes, and the cell free supernatant was collected. The supernatant was run by volume on SDS-PAGE and immunoblotted for RHAMM and urokinase-plasmingen activator receptor (uPAR), a defined GPI-anchored protein previously shown to be present in lipid domains. Without MBCD, RHAMM was not released into the supernatant in detectable amounts, irrespective of PDGF-BB treatment (FIG. 11a, lane 2 vs 4). […]"}, "[5]": {"system": "rat aortic SMC", "assay": "SMC proliferation (MTS assay)", "assay_type": "cell-based", "experimental": "In order to determine the effect of PDGF-BB on SMC proliferation, 80% confluent and quiescent cultures of SMC were stimulated for 72 hours with varying doses of PDGF-BB (2-50 ng/ml) and cell number was determined using the MTS assay as described in Methods. A bell-shaped dose response curve was obtained with maximum stimulation of SMC proliferation at 10-25 ng/ml (FIG. 7d, *p<0.01 vs. control).\nThe effect of HA on SMC proliferation and modulation by PDGF-BB was also examined. SMC that were either maintained in serum-free medium or pre-stimulated with 10 ng/ml PDGF-BB for 24 hours were exposed to HA in serum-free medium at concentrations of 0.1-1000 μg/ml for 48 hours. […] As expected, baseline proliferation was increased in SMC cultures following exposure to 10 ng/ml PDGF-BB for 24 hours (FIG. 7e, *p<0.01 vs. non-stimulated cells). […] In order to determine the contribution of RHAMM to SMC proliferation induced by HA, SMC cultures were treated with R36 throughout the pre-stimulation period with PDGF-BB and subsequently during HA stimulation. Non-immune IgG was used as a negative control and a blocking anti-PDGF-BB antibody was used as a positive inhibitory control. Cell number was determined by MTS assay 48 hours after HA stimulation with and without antibody treatments. As noted before, PDGF-BB pretreatment increased baseline proliferation, FIG. 7e*p<0.01 vs. no PDGF), and HA stimulated a further 25% increase in proliferation, FIG. 7e**p<0.05 vs. PDGF, no HA). […] Anti-PDGF-BB antibody blocked 50% of the PDGF-mediated increase in baseline proliferation, FIG. 7e#p<0.01 anti-PDGF vs. normal IgG)."}, "[6]": {"system": "SMC", "conditions": "0.0 μg/ml of HA; previously demonstrated; cited from earlier work"}, "[7]": {"system": "rat aortic SMC", "assay": "SMC migration at leading edge of single scratch wounds (timelapse cinemicrography)", "assay_type": "cell-based", "experimental": "Primary cultures of rat aortic SMC were established as previously described. […]\nThe medium of confluent SMC cultures was then changed to DMEM defined medium for 48 hours for quiescence. Migration of SMC at the leading edge of single scratch wounds of confluent cultures was determined using timelapse cinemicrography as previously described and summarized below. […] Media HA concentration was determined as described below. […]\nSMC plated in DMEM complete medium were allowed to grow to confluence. After overnight quiescence, a single scratch wound was made in the center of the culture plate using a sterile cell scraper and fresh defined medium was added The motility of cells at the leading edge of these wounds was determined using timelapse cinemicrography (Metamorph, Universal Imaging Corporation, West Chester, Pa.) as previously described. Briefly, cells were monitored using a Nikon TE-300 inverted microscope (Nikon Instruments, Inc., Melville, N.Y.) to which a video camera (Hamamatsu CCD, Inc., Hamamatsu City, Japan) was attached. At least 20 cells per high power field were imaged every hour and the mean distance traveled per frame was measured to obtain mean cell velocities."}, "[8]": {"system": "rat aortic SMC", "assay": "HA content of medium of SMC cultures (ELISA like assay)", "assay_type": "cell-based", "conditions": "quiescent SMC treated 24 hours, normalized to total protein", "experimental": "The medium of confluent SMC cultures was then changed to DMEM defined medium for 48 hours for quiescence. Migration of SMC at the leading edge of single scratch wounds of confluent cultures was determined using timelapse cinemicrography as previously described and summarized below. To observe the effect of HA on this migratory response to wounding, cultures were stimulated with varying concentrations of HA (0.1-100 μg/ml) and studied for 24 hours. For PDGF-BB stimulated HA synthesis experiments, quiescent SMC were stimulated with varying doses of PDGF-BB (2-100 ng/ml) for 24 hours. Media HA concentration was determined as described below. All experiments described below included 10 replicates and each experiment was repeated at least 3 times.\nA modified ELISA assay was utilized for determination of HA concentration.\nIn order to determine the optimal concentration of PDGF-BB required to simulate HA synthesis in SMC, the HA content of medium from quiescent SMC treated for 24 hours with various concentrations of PDGF-BB was determined using an ELISA like assay for HA. Resulting values were normalized to the total protein content of the cultures. […] We therefore used this concentration of PDGF-BB for all subsequent experiments."}}, "data": [{"molecule": "N[C@@H]1C(O)O[C@H](CO)[C@@H](O)[C@@H]1O", "note": "(stereo partly drawn) [mannosamine]", "values": [{"measurement": "presence of RHAMM in pellet phase after Triton X-114 fractionation", "setting": "[1]", "value": "completely inhibited"}]}, {"molecule": "CAV: caveolin scaffolding domain (aa 82-101) peptide fused to antenapedia sequence (RQIKIWFQNRRMKWKKDGIWKASFTTFTVTKYWFYR)", "values": [{"measurement": "PDGF-BB-induced erk phosphorylation after peptide pretreatment", "setting": "[2]", "value": "inhibited"}, {"measurement": "co-immunoprecipitation of RHAMM and caveolin-1", "setting": "[3]", "value": "decreased co-immunoprecipitation"}]}, {"molecule": "Methyl-beta-cyclodextrin [MBCD]", "values": [{"measurement": "release of 70 kDa RHAMM into supernatant by MBCD", "setting": "[4]", "value": "released into supernatant"}]}, {"molecule": "RM: peptide of RHAMM caveolin-binding motif (KWRLL YEEL YDKTKPFQ) fused to antenapedia sequence RQIKIWFQNRRMKWKK (YDKTKPFQRQIKIWFQNRRMKWKK)", "values": [{"measurement": "PDGF-BB-induced erk phosphorylation after peptide pretreatment", "setting": "[2]", "value": "inhibited"}, {"measurement": "co-immunoprecipitation of RHAMM and caveolin-1", "setting": "[3]", "value": "decreased co-immunoprecipitation"}]}, {"molecule": "hyaluronan [HA]", "values": [{"measurement": "proliferative response of SMC to HA without PDGF-BB pre-stimulation", "setting": "[5]; HA 0.1-1000 μg/ml, 48 hours, serum-free medium", "value": "no proliferative response"}, {"measurement": "HA concentration of maximal proliferative response", "setting": "[5]; after pre-stimulation with 10 ng/ml PDGF-BB", "value": 100, "unit": "µg/mL"}, {"measurement": "further increase in SMC proliferation in response to HA", "setting": "[5]; after pre-stimulation with 10 ng/ml PDGF-BB for 24 hours, HA 48 hours", "value": 25, "unit": "%"}, {"measurement": "random migration of sub-confluent SMC cultures", "setting": "[6]", "value": "increases their random migration"}, {"measurement": "effect of exogenous HA on SMC migration after single scratch wounding", "setting": "[7]; 0.001 μg/ml HA added to wounded cultures", "value": "further stimulation of SMC that continued up to 18 hours"}]}, {"molecule": "PDGF-BB: Platelet-Derived Growth Factor BB dimer, obtained from R & D Systems (protein, UniProt P01127 82-190, looked up, homodimer BB, Platelet-Derived Growth Factor BB dimer, obtained from R & D Systems) Platelet-derived growth …: SLGSLTIAEPAMIAECKTRTEVFEISRRLIDRTNANFLVWPPCVEVQRCSGCCNNRNVQCRPTQVQLRPVQVRKIEIVRKKPIFKKATVTLEDHLACKCETVAAARPVT", "values": [{"measurement": "baseline SMC proliferation", "setting": "[5]; 10 ng/ml PDGF-BB for 24 hours", "value": "increased"}, {"measurement": "PDGF-BB dose of maximum stimulation of SMC proliferation", "setting": "[5]; 72 hours, doses 2-50 ng/ml, bell-shaped curve", "value": "10 to 25", "unit": "ng/mL"}, {"measurement": "PDGF-BB dose of maximal HA synthesis", "setting": "[8]", "value": 10, "unit": "ng/mL"}, {"measurement": "increase of mean cell velocity of SMC at leading edge of wounds", "setting": "[7]; PDGF-BB 10 ng/ml vs non-stimulated control", "value": "two-fold"}]}]}
